Common to all, as to test: DTP human tumour cell line panel, 48 h
The test system of assay [1] is ACHN.
The test system of assay [2] is EKVX.
Assay [3] has as its system HCC 2998.
Assay [4] deals with HL-60.
In assay [5] the test system is HOP-92.
In assay [6] the test system is HT-29.
For assay [7], the system named is KM12.
Assay [8] concerns NCI-H522.
For assay [9], the system named is OVCAR-3.
The subject of assay [10] is OVCAR-4.
Assay [11] has as its system OVCAR-8.
The subject of assay [12] is RXF 393.
Assay [13] has as its system SF-268.
For assay [14], the system named is SK-MEL-5.
The subject of assay [15] is SNB-19.
The test system of assay [16] is SW-620.
Assay [17] has as its system TK-10.
Assay [18] has as its system UACC-62.
For assay [19], the system named is UO-31.
In assay [20] the test system is 786-0.

Structures are written as SMILES.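 How tested: cells in 96-well plates exposed to compound for 48 hours at five concentrations. GI50 marks 50% less growth.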 Calls of active or inactive are those of the source. Cut-off read from the data, not from the text of the source: active = GI50 up to about 1.1 µM and inactive = higher.

In the case of `Cc1ccc(P(c2ccc(C)cc2)c2ccc(C)cc2)cc1`, the GI50 is 23.2 µM (inactive) in assay [1]; 28.3 µM (inactive) in assay [2]; 16.1 µM (inactive) in [3]; 28.8 µM (inactive) in [4]; 5.66 µM (inactive) in assay [5]; 19.4 µM (inactive) in assay [6]. Also, the GI50 in assay [7] is 15.8 µM (inactive); in [8], 11.4 µM (inactive); in assay [9] it was 15.7 µM (inactive); in assay [10] it was 19.8 µM (inactive); in assay [11], 18 µM (inactive); in assay [12], 15.5 µM (inactive). The GI50 was 24.3 µM (inactive) in assay [13]; 16.6 µM (inactive) in assay [14]; 61.8 µM (inactive) in assay [15]; 26.2 µM (inactive) in assay [16]; 31 µM (inactive) in assay [17]; 21.6 µM (inactive) in [18]. Also, the GI50 in [19] was < 0.01 µM (active).
Take `Cc1cccc(C)c1NC(=O)CCc1nnc2s/c(=C\c3ccc(N(C)C)cc3)c(=O)n12`: the GI50 in assay [20] is > 100 µM (inactive); in assay [1], > 100 µM (inactive); in assay [3], > 100 µM (inactive); in assay [4], 68.1 µM (inactive); in assay [5] it was > 100 µM (inactive); in assay [6], > 100 µM (inactive). The GI50 is > 100 µM (inactive) in assay [7]; > 100 µM (inactive) in assay [8]; 56.1 µM (inactive) in assay [9]; > 100 µM (inactive) in [10]; > 100 µM (inactive) in [11]; 69.2 µM (inactive) in [12]. Further, the GI50 is 59.2 µM (inactive) in [13]; > 100 µM (inactive) in assay [14]; > 100 µM (inactive) in assay [15]; > 100 µM (inactive) in assay [16]; > 100 µM (inactive) in assay [17]; > 100 µM (inactive) in [18]. Further, the GI50 in [19] was > 100 µM (inactive).
In the case of `O=S(=O)(O)Nc1ccc(-c2nc3ccccc3s2)cc1Cl`, the GI50 in assay [20], in assay [1], in assay [2], in assay [3], in assay [4] and in assay [5] was > 100 µM (inactive) throughout. Besides, the GI50 in assay [6], in assay [7], in assay [8], in assay [9], in [10] and in assay [11] was > 100 µM (inactive) throughout. Also, the GI50 in [12] was > 100 µM (inactive); in [14] it was > 100 µM (inactive); in assay [15], > 100 µM (inactive); in assay [16] it was > 100 µM (inactive); in [17], 8.09 µM (inactive); in assay [18], > 100 µM (inactive). In addition, the GI50 in assay [19] was > 100 µM (inactive).
Take `CC(C)OP(=O)(OC(C)C)c1nc(-c2ccccc2)n(-c2ccc([N+](=O)[O-])cc2)n1`: the GI50 in [1], in assay [2], in assay [3], in assay [4], in assay [5] and in [6] was > 100 µM (inactive) each time. Moreover, the GI50 in assay [7] was > 100 µM (inactive); in assay [8] it was 98.9 µM (inactive); in assay [9] it was > 100 µM (inactive); in assay [10], > 100 µM (inactive); in assay [11], > 100 µM (inactive); in assay [12] it was 0.0111 µM (active). The GI50 in [13], in [14], in [15], in assay [16], in assay [17] and in assay [18] was > 100 µM (inactive) each time. In addition, the GI50 in assay [19] is > 100 µM (inactive).
Regarding `COc1cc(C=O)cc(/C=N/c2ccc(Br)cc2)c1O`, the GI50 in assay [1] was 2.53 µM (inactive); in assay [2], 13.6 µM (inactive); in assay [3], 14.1 µM (inactive); in assay [4], 2.11 µM (inactive); in [5], 3.53 µM (inactive); in assay [6], 17.7 µM (inactive). The GI50 is 10.2 µM (inactive) in assay [7]; 0.995 µM (active) in assay [8]; 13.5 µM (inactive) in assay [9]; 22.5 µM (inactive) in assay [10]; 2.86 µM (inactive) in [11]; 4.43 µM (inactive) in [12]. Moreover, the GI50 was 1.66 µM (inactive) in [13]; 2.19 µM (inactive) in assay [14]; 12.7 µM (inactive) in assay [15]; 1.25 µM (inactive) in assay [16]; 32.4 µM (inactive) in assay [17]; 0.347 µM (active) in assay [18]. Moreover, in assay [19], the GI50 is 3.2 µM (inactive).
Turning to `CCCCS(=O)(=O)Nc1ccc(Nc2c3ccccc3nc3ccccc23)c(OC)c1`, the GI50 is 1.91 µM (inactive) in assay [2]; 3.21 µM (inactive) in [3]; 0.183 µM (active) in assay [4]; 2.15 µM (inactive) in assay [5]; 1.67 µM (inactive) in [6]; 3.45 µM (inactive) in assay [7]. Besides, the GI50 is 5.33 µM (inactive) in [8]; 6.98 µM (inactive) in assay [9]; 5.6 µM (inactive) in [10]; 2 µM (inactive) in assay [11]; 4.39 µM (inactive) in [12]; 2.25 µM (inactive) in assay [13]. The GI50 in [14] was 5.2 µM (inactive); in assay [15], 1.94 µM (inactive); in [16], 0.675 µM (active); in [18] it was 1.78 µM (inactive); in assay [19], 1.5 µM (inactive).
In the case of `Cc1cc(O)c2c(c1)C(=O)c1c(c(O)cc(O)c1-c1c(O)cc(O)c3c1C(=O)c1cc(C)cc(O)c1C3=O)C2=O` [SKYRIN], the GI50 in [2] was 11.9 µM (inactive); in assay [3], 11.4 µM (inactive); in assay [4], 7.11 µM (inactive); in [5] it was 13.1 µM (inactive); in assay [6], 13.1 µM (inactive); in [7] it was 9.08 µM (inactive). Also, the GI50 was 17.1 µM (inactive) in assay [8]; 6.31 µM (inactive) in assay [9]; 10.9 µM (inactive) in assay [10]; 8.26 µM (inactive) in assay [11]; 19.3 µM (inactive) in assay [12]; 13.9 µM (inactive) in [13]. Also, the GI50 in assay [14] is 9.44 µM (inactive); in assay [15], 2.5 µM (inactive); in assay [16] it was 14.4 µM (inactive); in assay [18], 10.4 µM (inactive); in assay [19] it was 5.26 µM (inactive).
Regarding `O=C1CCCSC(=O)N1Cc1ccccc1`, the GI50 in assay [20], in [1], in assay [2], in assay [3], in assay [4] and in assay [5] was > 100 µM (inactive) each time. Further, the GI50 in [6], in [7], in assay [8], in [9], in [10] and in assay [11] was > 100 µM (inactive) throughout. For the same compound, the GI50 in assay [12], in [13], in [14], in assay [15], in [16] and in [17] was > 100 µM (inactive) each time. The GI50 in [18] is > 100 µM (inactive).
Take `CC(=O)O[C@H]1C=CC(=O)C(C)CC1C` (some centres undefined): the GI50 in [1] is > 100 µM (inactive); in assay [2], > 100 µM (inactive); in [3], > 100 µM (inactive); in [4], 64.9 µM (inactive); in [5], > 100 µM (inactive); in assay [6], > 100 µM (inactive). Besides, the GI50 was > 100 µM (inactive) in assay [7]; 37.9 µM (inactive) in [8]; > 100 µM (inactive) in [9]; > 100 µM (inactive) in assay [10]; 42.6 µM (inactive) in assay [12]; > 100 µM (inactive) in [13]. Further, the GI50 in [14] was > 100 µM (inactive); in assay [15], > 100 µM (inactive); in assay [16] it was 73.5 µM (inactive); in assay [17] it was > 100 µM (inactive); in [18], > 100 µM (inactive); in assay [19], > 100 µM (inactive).
As for `Cc1cc2c(cc1C(=O)CCC(=O)O)CC1(C2)Cc2cc(C)c(C(=O)CCC(=O)O)cc2C1`, the GI50 in assay [20], in assay [1], in assay [2], in assay [3], in [4] and in [5] was > 100 µM (inactive) throughout. Besides, the GI50 in [6], in assay [7], in assay [8], in assay [9], in [10] and in assay [11] was > 100 µM (inactive) throughout. The GI50 in [12], in [13], in assay [14], in [15], in assay [16] and in [17] was > 100 µM (inactive) in each case. Moreover, the GI50 in assay [19] was > 100 µM (inactive).
Take `O=C1c2cc3c(cc2CC12Cc1cc4c(cc1C2)CCC4)CCC3`: the GI50 in assay [20] is > 100 µM (inactive); in assay [1] it was > 100 µM (inactive); in [2] it was > 100 µM (inactive); in assay [3], > 100 µM (inactive); in assay [4] it was 59.6 µM (inactive); in assay [5], > 100 µM (inactive). In addition, the GI50 was 93.8 µM (inactive) in assay [6]; > 100 µM (inactive) in assay [7]; > 100 µM (inactive) in assay [8]; > 100 µM (inactive) in [9]; > 100 µM (inactive) in assay [10]; > 100 µM (inactive) in [11]. In addition, the GI50 in [12], in assay [13], in assay [14], in assay [15], in assay [16] and in [17] was > 100 µM (inactive) in each case. Also, in assay [19], the GI50 was > 100 µM (inactive).

Source of the values: ChEMBL document CHEMBL1201862, “PubChem BioAssay data set” (2004).
